The test system of the experiment is c-Myc. Description: c-Myc immunofluorescence assay. In kind it is cell-based, human. Conditions: A549 cells, 24 hours, anti-c-Myc immunofluorescence. In a few lines:
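A549 NSCLC cells grown 48 h, then treated 24 h with increasing compound concentrations; fixed in 4% paraformaldehyde, stained with anti-c-Myc antibody plus fluorescent secondary and DAPI. Per-cell c-Myc fluorescence quantified by high-content imaging at 20×; dose-response fitted by logistic regression to give EC50.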
`COc1ccc(-c2noc(N3CCC(C(=O)NCC4CCN(Cc5nccs5)C4)CC3)n2)cc1` (stereo not shown) [Compound 364, 1-(3-(4-methoxyphenyl)-1,2,4-oxadiazol-5-yl)-N-((1-(thiazol-2-ylmethyl)pyrrolidin-3-yl)methyl)piperidine-4-carboxamide]: the “Myc Efficacy (−LogEC50)” value is “+ (+ >3 and <5)”.

For the compound `COc1ccc(-c2noc(N3CCC(C(=O)NCC4CCN(Cc5cncc(C)c5)C4)CC3)n2)cc1` (stereo not shown) [Compound 365, 1-(3-(4-methoxyphenyl)-1,2,4-oxadiazol-5-yl)-N-((1-((5-methylpyridin-3-yl)methyl)pyrrolidin-3-yl)methyl)piperidine-4-carboxamide], the “Myc Efficacy (−LogEC50)” value was “++ (++ ≥5 and <6)”.

On to `COc1ccc(-c2noc(N3CCC(C(=O)NCC4CCN(CCF)C4)CC3)n2)cc1` (stereo not shown) [Compound 366, N-((1-(2-fluoroethyl)pyrrolidin-3-yl)methyl)-1-(3-(4-methoxyphenyl)-1,2,4-oxadiazol-5-yl)piperidine-4-carboxamide], for which the “Myc Efficacy (−LogEC50)” value is “+ (+ >3 and <5)”.

Turning to `COc1ccc(-c2noc(N3CCC(C(=O)NCC4CCN(CC(F)F)C4)CC3)n2)cc1` (stereo not shown) [Compound 367, N-((1-(2,2-difluoroethyl)pyrrolidin-3-yl)methyl)-1-(3-(4-methoxyphenyl)-1,2,4-oxadiazol-5-yl)piperidine-4-carboxamide], the “Myc Efficacy (−LogEC50)” value is “+ (+ >3 and <5)”.

Take `COc1ccc(-c2noc(N3CCC(C(=O)NCC4CCN(CC5CC5C)C4)CC3)n2)cc1` (stereo not shown) [Compound 368, 1-(3-(4-methoxyphenyl)-1,2,4-oxadiazol-5-yl)-N-((1-((2-methylcyclopropyl)methyl)pyrrolidin-3-yl)methyl)piperidine-4-carboxamide]: the “Myc Efficacy (−LogEC50)” value was “++ (++ ≥5 and <6)”.

Regarding `COc1ccc(-c2noc(N3CCC(C(=O)NCC4CCN(C[C@@H]5CCCN5C)C4)CC3)n2)cc1` (stereo partly drawn) [Compound 369, 1-(3-(4-methoxyphenyl)-1,2,4-oxadiazol-5-yl)-N-((1-(((S)-1-methylpyrrolidin-2-yl)methyl)pyrrolidin-3-yl)methyl)piperidine-4-carboxamide], the “Myc Efficacy (−LogEC50)” value is “+ (+ >3 and <5)”.

`COc1ccc(-c2noc(N3CCC(C(=O)NCC4CCN(C5CCOC5)C4)CC3)n2)cc1` (stereo not shown) [Compound 370, 1-(3-(4-methoxyphenyl)-1,2,4-oxadiazol-5-yl)-N-((1-(tetrahydrofuran-3-yl)pyrrolidin-3-yl)methyl)piperidine-4-carboxamide]: the “Myc Efficacy (−LogEC50)” value was “+ (+ >3 and <5)”.

With `COc1ccc(-c2noc(N3CCC(C(=O)NCC4CCN(CC5(C)COC5)C4)CC3)n2)cc1` (stereo not shown) [Compound 371, 1-(3-(4-methoxyphenyl)-1,2,4-oxadiazol-5-yl)-N-((1-((3-methyloxetan-3-yl)methyl)pyrrolidin-3-yl)methyl)piperidine-4-carboxamide], the “Myc Efficacy (−LogEC50)” value is “+ (+ >3 and <5)”.

Consider `COc1ccc(-c2noc(N3CCC(C(=O)NCC4CCN(Cc5cccs5)C4)CC3)n2)cc1` (stereo not shown) [Compound 372, 1-(3-(4-methoxyphenyl)-1,2,4-oxadiazol-5-yl)-N-((1-(thiophen-2-ylmethyl)pyrrolidin-3-yl)methyl)piperidine-4-carboxamide], for which the “Myc Efficacy (−LogEC50)” value was “++ (++ ≥5 and <6)”.

As to `COc1ccc(-c2noc(N3CCC(C(=O)NCC4CCN(Cc5cnsc5)C4)CC3)n2)cc1` (stereo not shown) [Compound 373, N-((1-(isothiazol-4-ylmethyl)pyrrolidin-3-yl)methyl)-1-(3-(4-methoxyphenyl)-1,2,4-oxadiazol-5-yl)piperidine-4-carboxamide], the “Myc Efficacy (−LogEC50)” value is “++ (++ ≥5 and <6)”.

`COc1ccc(-c2noc(N3CCC(C(=O)NCC4CCN(CC(C)C)C4)CC3)n2)cc1` (stereo not shown) [Compound 374, N-((1-isobutylpyrrolidin-3-yl)methyl)-1-(3-(4-methoxyphenyl)-1,2,4-oxadiazol-5-yl)piperidine-4-carboxamide]: the “Myc Efficacy (−LogEC50)” value is “+ (+ >3 and <5)”.

With `COc1ccc(-c2noc(N3CCC(C(=O)NCC4CCN(CC5CCCOC5)C4)CC3)n2)cc1` (stereo not shown) [Compound 375, 1-(3-(4-methoxyphenyl)-1,2,4-oxadiazol-5-yl)-N-((1-((tetrahydro-2H-pyran-3-yl)methyl)pyrrolidin-3-yl)methyl)piperidine-4-carboxamide], the “Myc Efficacy (−LogEC50)” value is “++ (++ ≥5 and <6)”.

For `CCN1CCC(CNC(=O)C2CCN(c3nc(-c4ccc(OC)cc4)no3)CC2)C1` (stereo not shown) [Compound 376, N-((1-ethylpyrrolidin-3-yl)methyl)-1-(3-(4-methoxyphenyl)-1,2,4-oxadiazol-5-yl)piperidine-4-carboxamide], the “Myc Efficacy (−LogEC50)” value was “− (− ≤3)”.

For the compound `COc1ccc(-c2noc(N3CCC(C(=O)NCC4CCN(CC5(C)CCOCC5)C4)CC3)n2)cc1` (stereo not shown) [Compound 377, 1-(3-(4-methoxyphenyl)-1,2,4-oxadiazol-5-yl)-N-((1-((4-methyltetrahydro-2H-pyran-4-yl)methyl)pyrrolidin-3-yl)methyl)piperidine-4-carboxamide], the “Myc Efficacy (−LogEC50)” value was “+ (+ >3 and <5)”.

As to `C#Cc1ccc(CN2CCC(CNC(=O)C3CCN(c4nc(-c5ccc(OC)cc5)no4)CC3)C2)cc1` (stereo not shown) [Compound 378, N-((1-(4-ethynylbenzyl)pyrrolidin-3-yl)methyl)-1-(3-(4-methoxyphenyl)-1,2,4-oxadiazol-5-yl)piperidine-4-carboxamide], the “Myc Efficacy (−LogEC50)” value is “++ (++ ≥5 and <6)”.

Consider `COc1ccc(-c2noc(N3CCC(C(=O)NCC4CCN(Cc5ccc(C)o5)C4)CC3)n2)cc1` (stereo not shown) [Compound 379, 1-(3-(4-methoxyphenyl)-1,2,4-oxadiazol-5-yl)-N-((1-((5-methylfuran-2-yl)methyl)pyrrolidin-3-yl)methyl)piperidine-4-carboxamide], for which the “Myc Efficacy (−LogEC50)” value was “++ (++ ≥5 and <6)”.

For `COc1ccc(-c2noc(N3CCC(C(=O)NCC4CCN(Cc5cccnc5C)C4)CC3)n2)cc1` (stereo not shown) [Compound 380, 1-(3-(4-methoxyphenyl)-1,2,4-oxadiazol-5-yl)-N-((1-((2-methylpyridin-3-yl)methyl)pyrrolidin-3-yl)methyl)piperidine-4-carboxamide], the “Myc Efficacy (−LogEC50)” value is “++ (++ ≥5 and <6)”.

For `COc1ccc(-c2noc(N3CCC(C(=O)NCC4CCN(Cc5sccc5C)C4)CC3)n2)cc1` (stereo not shown) [Compound 381, 1-(3-(4-methoxyphenyl)-1,2,4-oxadiazol-5-yl)-N-((1-((3-methylthiophen-2-yl)methyl)pyrrolidin-3-yl)methyl)piperidine-4-carboxamide], the “Myc Efficacy (−LogEC50)” value is “++ (++ ≥5 and <6)”.

Turning to `COc1ccc(-c2noc(N3CCC(C(=O)NCC4CCN(Cc5cc(C)co5)C4)CC3)n2)cc1` (stereo not shown) [Compound 382, 1-(3-(4-methoxyphenyl)-1,2,4-oxadiazol-5-yl)-N-((1-((4-methylfuran-2-yl)methyl)pyrrolidin-3-yl)methyl)piperidine-4-carboxamide], the “Myc Efficacy (−LogEC50)” value was “++ (++ ≥5 and <6)”.

With `COc1ccc(-c2noc(N3CCC(C(=O)NCC4CCN(Cc5csc(C)n5)C4)CC3)n2)cc1` (stereo not shown) [Compound 383, 1-(3-(4-methoxyphenyl)-1,2,4-oxadiazol-5-yl)-N-((1-((2-methylthiazol-4-yl)methyl)pyrrolidin-3-yl)methyl)piperidine-4-carboxamide], the “Myc Efficacy (−LogEC50)” value was “++ (++ ≥5 and <6)”.

`COc1ccc(-c2noc(N3CCC(C(=O)NCC4CCN(Cc5nc(C)cs5)C4)CC3)n2)cc1` (stereo not shown) [Compound 384, 1-(3-(4-methoxyphenyl)-1,2,4-oxadiazol-5-yl)-N-((1-((4-methylthiazol-2-yl)methyl)pyrrolidin-3-yl)methyl)piperidine-4-carboxamide]: the “Myc Efficacy (−LogEC50)” value is “++ (++ ≥5 and <6)”.

On to `COc1ccc(-c2noc(N3CCC(C(=O)NCC4CCN(Cc5ccc(C)s5)C4)CC3)n2)cc1` (stereo not shown) [Compound 385, 1-(3-(4-methoxyphenyl)-1,2,4-oxadiazol-5-yl)-N-((1-((5-methylthiophen-2-yl)methyl)pyrrolidin-3-yl)methyl)piperidine-4-carboxamide], for which the “Myc Efficacy (−LogEC50)” value is “++ (++ ≥5 and <6)”.

Consider `CCCN1CCC(CNC(=O)C2CCN(c3nc(-c4ccc(OC)cc4)no3)CC2)C1` (stereo not shown) [Compound 386, 1-(3-(4-methoxyphenyl)-1,2,4-oxadiazol-5-yl)-N-((1-propylpyrrolidin-3-yl)methyl)piperidine-4-carboxamide], for which the “Myc Efficacy (−LogEC50)” value was “+ (+ >3 and <5)”.

For the compound `COc1ccc(-c2noc(N3CCC(C(=O)NCC4CCN(Cc5cccc(C)n5)C4)CC3)n2)cc1` (stereo not shown) [Compound 387, 1-(3-(4-methoxyphenyl)-1,2,4-oxadiazol-5-yl)-N-((1-((6-methylpyridin-2-yl)methyl)pyrrolidin-3-yl)methyl)piperidine-4-carboxamide], the “Myc Efficacy (−LogEC50)” value was “++ (++ ≥5 and <6)”.

With `COc1ccc(-c2noc(N3CCC(C(=O)NCC4CCN(Cc5cnc(C)s5)C4)CC3)n2)cc1` (stereo not shown) [Compound 388, 1-(3-(4-methoxyphenyl)-1,2,4-oxadiazol-5-yl)-N-((1-((2-methylthiazol-5-yl)methyl)pyrrolidin-3-yl)methyl)piperidine-4-carboxamide], the “Myc Efficacy (−LogEC50)” value is “++ (++ ≥5 and <6)”.

Take `COc1ccc(-c2noc(N3CCC(C(=O)NCC4CCN(Cc5ccc[nH]5)C4)CC3)n2)cc1` (stereo not shown) [Compound 389, N-((1-((1H-pyrrol-2-yl)methyl)pyrrolidin-3-yl)methyl)-1-(3-(4-methoxyphenyl)-1,2,4-oxadiazol-5-yl)piperidine-4-carboxamide]: the “Myc Efficacy (−LogEC50)” value is “++ (++ ≥5 and <6)”.

Regarding `COc1ccc(-c2noc(N3CCC(C(=O)NCC4CCN(Cc5cccc(O)c5)C4)CC3)n2)cc1` (stereo not shown) [Compound 390, N-((1-(3-hydroxybenzyl)pyrrolidin-3-yl)methyl)-1-(3-(4-methoxyphenyl)-1,2,4-oxadiazol-5-yl)piperidine-4-carboxamide], the “Myc Efficacy (−LogEC50)” value is “++ (++ ≥5 and <6)”.

As for `COc1ccc(-c2noc(N3CCC(C(=O)NCC4CCN(CC5CCCNCC5)C4)CC3)n2)cc1` (stereo not shown) [Compound 391, N-((1-(azepan-4-ylmethyl)pyrrolidin-3-yl)methyl)-1-(3-(4-methoxyphenyl)-1,2,4-oxadiazol-5-yl)piperidine-4-carboxamide], the “Myc Efficacy (−LogEC50)” value is “+ (+ >3 and <5)”.

The values above are taken from US12344600B2, “c-Myc mRNA translation modulators and uses thereof in the treatment of cancer” (Anima Biotech Inc., priority 2022, dated 2025).
